ChEMBL document CHEMBL3124848, “Crystal structures of human transthyretin complexed with glabridin” (J Med Chem, 2014)

Target: Transthyretin (Homo sapiens, UniProt P02766, V50M)
Assay: Inhibition of transthyretin V30M mutant (unknown origin) expressed in Escherichia coli assessed as inhibition of sodium acetate-mediated aggregation preincubated for 30 mins followed by sodium acetate addition measured after 96 hrs by thioflavin T assay

Row | IC50 | SMILES
1 | 13 µM | Oc1ccc([C@@H]2COc3cc(O)ccc3C2)cc1
2 | 16 µM | O=c1c(-c2ccc(O)cc2)coc2cc(O)ccc12 [DAIDZEIN]
3 | 7.8 µM | O=c1c(-c2ccc(O)cc2)coc2cc(O)cc(O)c12 [GENISTEIN]
4 | 6.4 µM | CC1(C)C=Cc2c(ccc3c2OC[C@@H](c2ccc(O)cc2O)C3)O1 [GLABRIDIN]

Row | SMILES | IC50
5 | O=c1cc(-c2ccc(O)c(O)c2)oc2cc(O)cc(O)c12 [LUTEOLIN] | 6.4 µM
